# Results: patent US8906925B2, “Pyrido[4,3-B]indoles containing rigid moieties” (Medivation Technologies, Inc., priority 2008, dated 2014)
# Where two headings read alike, the source gives them in different places.
# Tests used:
# [1] = target: human dopamine D2L receptor (Homo sapiens, UniProt P14416); assay: GTPγS functional assay, dopamine D2L (CHO-K1 membrane extracts); type: biochemical; parameters: host or cells: CHO-K1 co-expressing mitochondrial apoaequorin and Gα16; settings: for inhibition at 0.005 µM: antagonist concentration 5 nM; for inhibition at 0.05 µM: antagonist concentration 50 nM; for inhibition at 0.5 µM: antagonist concentration 500 nM; for inhibition at 5 µM: antagonist concentration 5000 nM; for inhibition at 15 µM: antagonist concentration 15000 nM
# From the text: To study the functional activity of compounds of the invention on the human recombinant dopamine D2L with Aequorin, GTPγS and cAMP functional assays and on the human recombinant serotonin 5-HT2A receptor with Aequorin, CHO-K1 cell lines expressing D2L or 5-HT2A recombinant receptor, mitochondrial apoaequorin and Gα16 were used for the Aequorin assay. CHO-K1 cell line expressing the recombinant D2L receptor was used for the cAMP assay and was amplified to prepare membranes used for the GTPγS assay.
# GTPγS Assay Procedure: Assay buffer [20 mM HEPES pH 7.4; 100 mM NaCl, 10 μg/mL saponin, 30 mM MgCl2]; Membranes [Recombinant CHO-K1-D2L membrane extracts thawed on ice and diluted in assay buffer to give 1 mg/mL (10 μg/10 μL) and kept on ice]; GDP [diluted in assay buffer to give […] final concentration]; Beads [PVT-WGA (Amersham, RPNQ0001), diluted in assay buffer at 25 mg/mL (0.25 mg/10 μL)]; GTPγ35S [(PerkinElmer NEG030X), diluted in assay buffer to give 0.1 nM final concentration]; Ligand [Quinpirol (Tocris, 1061) as reference agonist and haloperidol (Tocris, 0931) as reference antagonist, diluted in assay buffer]. Membranes were mixed with GDP (volume:volume) and incubated for at least 15 min on ice. In parallel, GTPγ[^35S] was mixed with the beads (volume:volume) just before starting the reaction. For agonist testing, the following reagents are successively added in the wells of an Optiplate (Perkin Elmer): 50 μL of test or reference ligand, 20 μL of the membranes:GDP mix, 10 μL of assay buffer and 20 μL of the GTPγ[^35S]:beads mix. For antagonist testing, the following reagents were successively added in the wells of an Optiplate (Perkin Elmer): 50 μL of test or reference ligand, 20 μL of the membranes:GDP mix, and then after an incubation of 15 min at room temperature, 10 μL of reference agonist at historical EC80 concentration and 20 μL of the GTPγ[^35S]:beads mix. The plates were covered with a top seal, mixed on an orbital shaker for 2 min, and then incubated for 1 h at room temperature. Then the plates were centrifuged for 10 min at 2000 rpm, incubated at room temperature 1 h and counted for 1 min/well with a Perkin Elmer TopCount reader. Compounds were tested for antagonist activity at the human dopamine D2L receptor (FAST-0101G) at the following nanomolar concentrations, in duplicate: Antagonist (nM): 5, 15, 50, 150, 500, 1500, 5000, 15000.
# mice (e.g., C57Bl/6J) = assay: Amphetamine-induced hyperactivity, open field test; type: in vivo, mouse; settings: amphetamine (4 mg/kg), 90 min. test
# Method: Male mice (various strains e.g., C57Bl/6J) from appropriate supplier (for example Jackson Laboratories, Bar Harbor, Me.) were used. Mice typically were received at 6-weeks of age. Mice were acclimated to the colony room for at least two weeks prior to testing. During the period of acclimation, mice were examined on a regular basis, handled, and weighed to assure adequate health and suitability and maintained on a 12 h/12 h light/dark cycle. The room temperature was maintained between 20 and 23° C. with a relative humidity maintained between 30% and 70%. Food and water were provided ad libitum for the duration of the study. In each test, animals were randomly assigned between treatment groups.
# The open field test (OF) was used to assess motor activity. […] Horizontal activity (distance traveled) and vertical activity (rearing) were measured from consecutive beam breaks.
# On the day of testing, animals were brought to the experimental room for at least 1 h acclimation prior to start of treatment. […] The time of administration of test compound to each animal was recorded. Baseline activity was recorded for […]. following which mice received amphetamine (4 mg/kg) or water and were placed back in the OF chambers for a 60-min. session. […]
# Data were analyzed by analysis of variance (ANOVA) followed by post-hoc comparisons with Fisher Tests when appropriate. […]
# [2] = antagonist concentration 150 nM
# [3] = antagonist concentration 1500 nM
# [4] = 0.03, 0.1, 0.3, 1, 3 and 10 mg/kg p.o.
# [5] = 0.03, 0.1, 0.3, 1 and 3 mg/kg p.o.
# Method for Sprague Dawley rats: The two-trial object recognition paradigm developed by Ennaceur and Delacour in the rat was used as a model of episodic short term memory.
# The experiments were carried out using 174-186 male Sprague Dawley rats (Centre d'Elevage R. Janvier, B. P. 55, 53940 Le Genest-Saint-Isle, F.). 143-146 rats met inclusion criteria described in the experimental procedure. In addition, 24 satellite animals were used for pharmacokinetic analysis. The rats (main study and pharmacokinetic study) weighed between 233 and 283 g (6-7 weeks old) at the beginning of the experiments. […] Rats were allowed to acclimate to environmental conditions for at least 5 days prior to experimentation. Rats were numbered by marking their tail with indelible markers.
# Each solution was prepared fresh each day of dosing. […] No corrective factor is required. […] PEG200 was dissolved in water for injection. The volume of administration was 10 mL/kg body weight for the oral route of administration and 5 mL/kg body weight for intraperitoneal route of administration. Each solution was prepared fresh each day of dosing.
# The experimental arena is a square wooden box (60×60×40 cm) painted dark blue, with 15×15 cm black painted squares under a clear plexiglass floor. The arena and the objects were cleaned using water between each trial in order to avoid odour trails left by rats. The arena was placed in a dark room illuminated only by halogen lamps oriented towards the ceiling and giving an uniform dim light in the box (around 60 lux). Animals to be tested were placed in the experimental room at least 30 min before testing.
# Rats were submitted to two trials spaced by an intertrial interval of 24 h. During the first trial (acquisition trial, T1), rats were placed in the arena containing 2 identical objects and time required by each animal to complete 15 sec. of object exploration was determined with a cut-off time of 4 min. Exploration was considered to be directing the nose at a distance less than 2 cm from the object and/or touching the object. For the second trial (testing trial, T2), one of the objects presented in the first trial was replaced by an unknown object (novel object), rats were placed back in the arena for 3 min and exploration of each object was determined. For both T1 and T2, locomotor activity of rats was scored.
# Using group numbers of 18, rats were randomized to constitute the following groups: 1) Vehicle (5% PEG200 in water) p.o.; 2) Compound No. 88 or 90 (0.03 mg/kg) p.o.; 3.
# The following parameters were measured: 1) Time required to achieve 15 sec. of object exploration on T1 (sec.); 2) Locomotor activity on T1 (number of crossed lines); 3) Time spent in active exploration of the familiar object on T2 (sec.)=TF; 4) Time spent in active exploration of the novel object on T2 (sec.)=TN; 5) Locomotor activity on T2 (number of crossed lines).
# All parameters were analysed using SAS software (version 8.2). Statistical tests were performed with an alpha level of 0.05.
# Chain of human dopamine D2L receptor (P14416 whole entry): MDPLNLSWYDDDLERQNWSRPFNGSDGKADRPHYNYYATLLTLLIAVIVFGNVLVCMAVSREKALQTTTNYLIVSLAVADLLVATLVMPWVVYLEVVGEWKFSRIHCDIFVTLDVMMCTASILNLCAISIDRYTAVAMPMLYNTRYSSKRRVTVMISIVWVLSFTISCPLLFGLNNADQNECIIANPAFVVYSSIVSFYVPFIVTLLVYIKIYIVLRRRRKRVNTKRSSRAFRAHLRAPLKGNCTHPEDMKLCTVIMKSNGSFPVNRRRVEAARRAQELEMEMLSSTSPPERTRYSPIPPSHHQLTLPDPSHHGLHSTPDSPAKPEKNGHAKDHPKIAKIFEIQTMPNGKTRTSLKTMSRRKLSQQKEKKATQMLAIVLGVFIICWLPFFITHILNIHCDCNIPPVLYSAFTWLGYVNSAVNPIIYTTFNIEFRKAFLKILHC
SMILES,inhibition at 0.005 µM [1] [%],inhibition at […] ([1]; antagonist concentration 15 nM) [%],inhibition at 0.05 µM [1] [%],"inhibition at […] [1, 2] [%]",inhibition at 0.5 µM [1] [%],"inhibition at […] [1, 3] [%]",inhibition at 5 µM [1] [%],inhibition at 15 µM [1] [%],"Total Distance Traveled (center+periphery), ANOVA (mice (e.g., C57Bl/6J))","Total Rearing (center+periphery), ANOVA (mice (e.g., C57Bl/6J))","memory performance (TN−TF and RI) compared to vehicle, ANOVA + Dunnett's test (Sprague Dawley rats; 0.3 mg/kg p.o.)","memory performance (TN−TF and RI) compared to vehicle, ANOVA + Dunnett's test (Sprague Dawley rats; 1 mg/kg p.o.)",memory performance (TN−TF and RI values) (Sprague Dawley rats; [4]),"number of ""good learners"" (Δ≧5 sec.) (Sprague Dawley rats; [4])","cognitive enhancing activity (delay of onset of natural forgetting) (Sprague Dawley rats; single oral administration 0.03, 0.1, 0.3, 1, 3 and 10 mg/kg, 30 min before T1)","memory performance (TN−TF and RI) compared to vehicle, ANOVA + Dunnett's test (Sprague Dawley rats; 0.1 mg/kg p.o.)",memory performance (TN−TF and RI values) (Sprague Dawley rats; [5]),"number of ""good learners"" (Δ≧5 sec.) (Sprague Dawley rats; [5])","locomotor activity assessed during T1 and T2 (Sprague Dawley rats; rat, in vivo, po, 3 mg/kg)"
"C/C(=C\n1c2c(c3cc(Cl)ccc31)CN(C)CC2)c1ccc(F)cc1 [Compound 83, (E)-8-chloro-5-(2-(4-fluorophenyl)prop-1-enyl)-2,3,4,5-tetrahydro-2-methyl-1H-pyrido[4,3-b]indole]",51.8,90,104,109,118,113,111,105,significant treatment effect,significant treatment effect,,,,,,,,,
"C/C(=C\n1c2c(c3cc(C)ccc31)CN(C)CC2)c1ccncc1 [Compound 88, (E)-2,3,4,5-tetrahydro-2,8-dimethyl-5-(2-(pyridin-4-yl)prop-1-enyl)-1H-pyrido[4,3-b]indole]",,,,,,,,,,,reached the threshold of statistical significance,reached the threshold of statistical significance,improved,confirmed the cognitive enhancing activity,displayed a cognitive enhancing activity,,,,
"C/C(=C\n1c2c(c3cc(Cl)ccc31)CN(C)CC2)c1ccncc1 [Compound 90, (E)-8-chloro-2,3,4,5-tetrahydro-2-methyl-5-(2-(pyridin-4-yl)prop-1-enyl)-1H-pyrido[4,3-b]indole]",59,101,106,109,109,116,112,116,,,,reached the threshold of statistical significance,,,,reached the threshold of statistical significance,improved,confirmed the cognitive enhancing activity,no statistically significant effects
